{"source": "PubChem BioAssay (NCI)", "assay_in_all_cases": "NCI tumour cell line growth inhibition, 48 h", "key": {"SN12C renal": {"system": "SN12C renal"}, "MALME-3M melanoma": {"system": "MALME-3M melanoma"}, "HL-60(TB) leukemia": {"system": "HL-60(TB) leukemia"}, "ACHN renal": {"system": "ACHN renal"}, "MOLT-4 leukemia": {"system": "MOLT-4 leukemia"}, "CAKI-1 renal": {"system": "CAKI-1 renal"}, "OVCAR-8 ovarian": {"system": "OVCAR-8 ovarian"}, "COLO 205 colon": {"system": "COLO 205 colon"}, "UACC-257 melanoma": {"system": "UACC-257 melanoma"}, "SR leukemia": {"system": "SR leukemia"}, "OVCAR-5 ovarian": {"system": "OVCAR-5 ovarian"}, "UO-31 renal": {"system": "UO-31 renal"}, "SK-MEL-28 melanoma": {"system": "SK-MEL-28 melanoma"}, "SK-MEL-2 melanoma": {"system": "SK-MEL-2 melanoma"}, "HOP-62 NSCLC": {"system": "HOP-62 NSCLC"}, "NCI-H23 lung": {"system": "NCI-H23 lung"}, "HOP-92 NSCLC": {"system": "HOP-92 NSCLC"}, "IGROV1 ovarian": {"system": "IGROV1 ovarian"}, "SF-295 CNS": {"system": "SF-295 CNS"}, "KM12 colon": {"system": "KM12 colon"}, "MDA-MB-435": {"system": "MDA-MB-435"}, "T-47D breast": {"system": "T-47D breast"}, "A549 NSCLC": {"system": "A549 NSCLC"}, "OVCAR-3 ovarian": {"system": "OVCAR-3 ovarian"}, "MCF7 breast": {"system": "MCF7 breast"}, "SK-OV-3 ovarian": {"system": "SK-OV-3 ovarian"}, "RXF 393 renal": {"system": "RXF 393 renal"}, "HS 578T breast": {"system": "HS 578T breast"}, "SW-620 colon": {"system": "SW-620 colon"}}, "note": "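Interpolation was linear, between the two tested concentrations surrounding the appropriate level; five concentrations were tested over 48 hours in 96-well plates. GI50: concentration for 50% inhibition of growth. At the TGI there is no net growth.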", "data": [{"smiles": "Cc1ccc2cc3c(N)c4c(C)ccc(C)c4nc3nc2c1", "values": [{"measurement": "GI50", "setting": "SN12C renal", "value": 6.75, "unit": "µM"}, {"measurement": "TGI", "setting": "SN12C renal", "value": 21, "unit": "µM"}, {"measurement": "GI50", "setting": "MALME-3M melanoma", "value": 17.7, "unit": "µM"}, {"measurement": "TGI", "setting": "MALME-3M melanoma", "value": 36.1, "unit": "µM"}, {"measurement": "GI50", "setting": "HL-60(TB) leukemia", "value": 18.7, "unit": "µM"}, {"measurement": "TGI", "setting": "HL-60(TB) leukemia", "value": 40.8, "unit": "µM"}, {"measurement": "GI50", "setting": "ACHN renal", "value": 2.68, "unit": "µM"}, {"measurement": "TGI", "setting": "ACHN renal", "value": 13.2, "unit": "µM"}, {"measurement": "GI50", "setting": "MOLT-4 leukemia", "value": 3.49, "unit": "µM"}, {"measurement": "TGI", "setting": "MOLT-4 leukemia", "value": 21.7, "unit": "µM"}, {"measurement": "GI50", "setting": "CAKI-1 renal", "value": 10.2, "unit": "µM"}, {"measurement": "TGI", "setting": "CAKI-1 renal", "value": 22, "unit": "µM"}, {"measurement": "GI50", "setting": "OVCAR-8 ovarian", "value": 5.64, "unit": "µM"}, {"measurement": "TGI", "setting": "OVCAR-8 ovarian", "value": 23.5, "unit": "µM"}, {"measurement": "GI50", "setting": "COLO 205 colon", "value": 5.77, "unit": "µM"}, {"measurement": "TGI", "setting": "COLO 205 colon", "value": 20, "unit": "µM"}, {"measurement": "GI50", "setting": "UACC-257 melanoma", "value": 14.2, "unit": "µM"}, {"measurement": "TGI", "setting": "UACC-257 melanoma", "value": 28.6, "unit": "µM"}, {"measurement": "GI50", "setting": "SR leukemia", "value": 2.3, "unit": "µM"}, {"measurement": "TGI", "setting": "SR leukemia", "value": 7.33, "unit": "µM"}, {"measurement": "GI50", "setting": "OVCAR-5 ovarian", "value": 1.99, "unit": "µM"}, {"measurement": "TGI", "setting": "OVCAR-5 ovarian", "value": 5.05, "unit": "µM"}, {"measurement": "GI50", "setting": "UO-31 renal", "value": 3.6, "unit": "µM"}, {"measurement": "TGI", "setting": "UO-31 renal", "value": 19.6, "unit": "µM"}, {"measurement": "GI50", "setting": "SK-MEL-28 melanoma", "value": 13.7, "unit": "µM"}, {"measurement": "TGI", "setting": "SK-MEL-28 melanoma", "value": 28.5, "unit": "µM"}, {"measurement": "GI50", "setting": "SK-MEL-2 melanoma", "value": 14, "unit": "µM"}, {"measurement": "TGI", "setting": "SK-MEL-2 melanoma", "value": 29.3, "unit": "µM"}, {"measurement": "GI50", "setting": "HOP-62 NSCLC", "value": 9.79, "unit": "µM"}, {"measurement": "TGI", "setting": "HOP-62 NSCLC", "value": 25.5, "unit": "µM"}, {"measurement": "GI50", "setting": "NCI-H23 lung", "value": 11.6, "unit": "µM"}, {"measurement": "TGI", "setting": "NCI-H23 lung", "value": 28.6, "unit": "µM"}, {"measurement": "GI50", "setting": "HOP-92 NSCLC", "value": 1.87, "unit": "µM"}, {"measurement": "TGI", "setting": "HOP-92 NSCLC", "value": 16.5, "unit": "µM"}, {"measurement": "GI50", "setting": "IGROV1 ovarian", "value": 6.73, "unit": "µM"}, {"measurement": "TGI", "setting": "IGROV1 ovarian", "value": 22.3, "unit": "µM"}, {"measurement": "GI50", "setting": "SF-295 CNS", "value": 1.66, "unit": "µM"}, {"measurement": "TGI", "setting": "SF-295 CNS", "value": 3.05, "unit": "µM"}, {"measurement": "GI50", "setting": "KM12 colon", "value": 2.12, "unit": "µM"}, {"measurement": "TGI", "setting": "KM12 colon", "value": 16.9, "unit": "µM"}, {"measurement": "GI50", "setting": "MDA-MB-435", "value": 10.9, "unit": "µM"}, {"measurement": "TGI", "setting": "MDA-MB-435", "value": 23.4, "unit": "µM"}, {"measurement": "GI50", "setting": "T-47D breast", "value": 2.14, "unit": "µM"}, {"measurement": "TGI", "setting": "T-47D breast", "value": 6.1, "unit": "µM"}, {"measurement": "GI50", "setting": "A549 NSCLC", "value": 1.85, "unit": "µM"}, {"measurement": "TGI", "setting": "A549 NSCLC", "value": 3.44, "unit": "µM"}, {"measurement": "GI50", "setting": "OVCAR-3 ovarian", "value": 6.12, "unit": "µM"}, {"measurement": "TGI", "setting": "OVCAR-3 ovarian", "value": 21.1, "unit": "µM"}, {"measurement": "GI50", "setting": "MCF7 breast", "value": 1.44, "unit": "µM"}, {"measurement": "TGI", "setting": "MCF7 breast", "value": 2.98, "unit": "µM"}, {"measurement": "GI50", "setting": "SK-OV-3 ovarian", "value": 11.4, "unit": "µM"}, {"measurement": "TGI", "setting": "SK-OV-3 ovarian", "value": 24, "unit": "µM"}, {"measurement": "GI50", "setting": "RXF 393 renal", "value": 1.8, "unit": "µM"}, {"measurement": "TGI", "setting": "RXF 393 renal", "value": 3.62, "unit": "µM"}, {"measurement": "GI50", "setting": "HS 578T breast", "value": 12.8, "unit": "µM"}, {"measurement": "TGI", "setting": "HS 578T breast", "value": 34.5, "unit": "µM"}, {"measurement": "GI50", "setting": "SW-620 colon", "value": 2.81, "unit": "µM"}]}]}
